Patent publication US9493468B2, “Antifungal 5,6-dihydro-4H-pyrrolo[1,2-a][1,4]benzo-diazepines and 6H-pyrrolo[1,2-a][1,4]benzodiazepines substituted with heterocyclic derivatives” (Janssen Pharmaceutica NV, priority 2011, dated 2016)

Legend:
Format in all cases: cell-based
Microsporum canis = experiment: Antifungal activity in vitro, resazurin growth inhibition: Microsporum canis (B68128)
Description: (§1) The standard susceptibility screen is performed in 96-well plates (U-bottom, Greiner Bio-One). Serial dilutions (2-fold or 4-fold) of 20 mM compound stock solutions are made in 100% DMSO, followed by an intermediate dilution step in water. These serial dilutions (10 μl) are then spotted onto test-plates that can be stored in the dark at 4° C. for a maximum period of 2 weeks. An adequate broad dose-range is included with 64 μM as the highest in-test concentration. The culture medium RPMI-1640 is supplemented with L-glutamine, 2% glucose and buffered with 3-(N-morpholino)-propanesulfonic acid (MOPS) at pH 7.0±0.1.
(§2) The different fungal species/isolates (Table 3a) are cryopreserved and 1/1000 diluted in medium just prior to use. A standard inoculum of 200 μl containing 10^3 colony-forming unit (cfu) is then added to each well. A positive control (100% growth=fungal culture without antifungal) and a negative control (0% growth ═RPMI-MOPS medium) are included on each plate. Optimal incubation time and temperature are dependent on the fungal species and vary from 24 h for yeasts (37° C.) to one week or more for dermatophytes (27° C.). Inhibition of fungal growth is measured after adding 10 μl of 0.005% (w/v) resazurin (Sigma Aldrich) to each well, based on the principle that living cells convert the non-fluorescent blue resazurin into the pink and fluorescent resorufin, allowing fluorimetric reading (λex 550 nm and λem 590 nm) after an additional incubation period (‘resa’ time mentioned in Table 3a).

[1] = tested on: Trichophyton mentagrophytes; experiment: Antifungal activity in vitro, resazurin growth inhibition: Trichophyton mentagrophytes (B70554)
Description: as §1, §2

Trichophyton rubrum = experiment: Antifungal activity in vitro, resazurin growth inhibition: Trichophyton rubrum (B68183)
Description: as §1, §2

Sporothrix schenkii = experiment: Antifungal activity in vitro, resazurin growth inhibition: Sporothrix schenkii (B62482)
Description: as §1, §2

Aspergillus fumigatus = experiment: Antifungal activity in vitro, resazurin growth inhibition: Aspergillus fumigatus (B42928)
Description: as §1, §2

Candida parapsilosis = experiment: Antifungal activity in vitro, resazurin growth inhibition: Candida parapsilosis (B66126)
Description: as §1, §2

Cryptococcus neoformans = experiment: Antifungal activity in vitro, resazurin growth inhibition: Cryptococcus neoformans (B66663)
Description: as §1, §2

Cl.FC(F)(F)c1ccc(C2NCc3c(Cl)cccc3-n3cccc32)nn1 (racemic) [Compound 28]
Inf. B: Microsporum canis B68128, pIC50 (Microsporum canis): 4.29 | Inf. G: Trichophyton mentagrophytes B70554, pIC50 [1]: 4.28 | Inf. C: Trichophyton rubrum B68183, pIC50 (Trichophyton rubrum): 4.43 | Inf. A: Sporothrix schenkii B62482, pIC50 (Sporothrix schenkii): <4.19 | Inf. E: Aspergillus fumigatus B42928, pIC50 (Aspergillus fumigatus): <4.19 | Inf. D: Candida parapsilosis B66126, pIC50 (Candida parapsilosis): <4.19 | Inf. F: Cryptococcus neoformans B66663, pIC50 (Cryptococcus neoformans): <4.19

CCc1ccc(C2=NCc3c(ccc(Cl)c3Cl)-n3cccc32)cn1 [Compound 75]
Inf. B: Microsporum canis B68128, pIC50 (Microsporum canis): 6.45 | Inf. G: Trichophyton mentagrophytes B70554, pIC50 [1]: <4.19 | Inf. C: Trichophyton rubrum B68183, pIC50 (Trichophyton rubrum): <4.19 | Inf. A: Sporothrix schenkii B62482, pIC50 (Sporothrix schenkii): <4.19 | Inf. E: Aspergillus fumigatus B42928, pIC50 (Aspergillus fumigatus): <4.19 | Inf. D: Candida parapsilosis B66126, pIC50 (Candida parapsilosis): <4.19 | Inf. F: Cryptococcus neoformans B66663, pIC50 (Cryptococcus neoformans): <4.19

Cc1ccc2cc(C3NCc4c(C)cccc4-n4cccc43)oc2c1.Cl (racemic) [Compound 40]
Inf. B: Microsporum canis B68128, pIC50 (Microsporum canis): 5.52 | Inf. G: Trichophyton mentagrophytes B70554, pIC50 [1]: 4.47 | Inf. C: Trichophyton rubrum B68183, pIC50 (Trichophyton rubrum): 4.77 | Inf. A: Sporothrix schenkii B62482, pIC50 (Sporothrix schenkii): <4.19 | Inf. E: Aspergillus fumigatus B42928, pIC50 (Aspergillus fumigatus): <4.19 | Inf. D: Candida parapsilosis B66126, pIC50 (Candida parapsilosis): <4.19 | Inf. F: Cryptococcus neoformans B66663, pIC50 (Cryptococcus neoformans): <4.19

Br.Clc1cccc2c1-n1cccc1C(c1ccncc1)NC2 (racemic) [Compound 24]
Inf. B: Microsporum canis B68128, pIC50 (Microsporum canis): 4.57 | Inf. G: Trichophyton mentagrophytes B70554, pIC50 [1]: <4.19 | Inf. C: Trichophyton rubrum B68183, pIC50 (Trichophyton rubrum): 4.74 | Inf. A: Sporothrix schenkii B62482, pIC50 (Sporothrix schenkii): <4.19 | Inf. E: Aspergillus fumigatus B42928, pIC50 (Aspergillus fumigatus): <4.19 | Inf. D: Candida parapsilosis B66126, pIC50 (Candida parapsilosis): <4.19 | Inf. F: Cryptococcus neoformans B66663, pIC50 (Cryptococcus neoformans): <4.19

CCn1cc(C2=NCc3c(Cl)cccc3-n3cccc32)cn1 [Compound 60]
Inf. B: Microsporum canis B68128, pIC50 (Microsporum canis): 5.18 | Inf. G: Trichophyton mentagrophytes B70554, pIC50 [1]: 4.47 | Inf. C: Trichophyton rubrum B68183, pIC50 (Trichophyton rubrum): 5.70 | Inf. A: Sporothrix schenkii B62482, pIC50 (Sporothrix schenkii): <4.19 | Inf. E: Aspergillus fumigatus B42928, pIC50 (Aspergillus fumigatus): 4.30 | Inf. D: Candida parapsilosis B66126, pIC50 (Candida parapsilosis): <4.19 | Inf. F: Cryptococcus neoformans B66663, pIC50 (Cryptococcus neoformans): <4.19

Cl.Clc1cccc2c1CN=C(c1nc3ccccc3s1)c1cccn1-2 [Compound 181]
Inf. B: Microsporum canis B68128, pIC50 (Microsporum canis): 5.69 | Inf. G: Trichophyton mentagrophytes B70554, pIC50 [1]: 4.98 | Inf. C: Trichophyton rubrum B68183, pIC50 (Trichophyton rubrum): 5.94 | Inf. A: Sporothrix schenkii B62482, pIC50 (Sporothrix schenkii): <4.19 | Inf. E: Aspergillus fumigatus B42928, pIC50 (Aspergillus fumigatus): <4.19 | Inf. D: Candida parapsilosis B66126, pIC50 (Candida parapsilosis): <4.19 | Inf. F: Cryptococcus neoformans B66663, pIC50 (Cryptococcus neoformans): <4.19

Cn1nc2ccc(C3=NCc4c(Cl)cc(Cl)cc4-n4cccc43)cc2n1 [Compound 109]
Inf. B: Microsporum canis B68128, pIC50 (Microsporum canis): <4.19 | Inf. G: Trichophyton mentagrophytes B70554, pIC50 [1]: 4.37 | Inf. C: Trichophyton rubrum B68183, pIC50 (Trichophyton rubrum): 5.70 | Inf. A: Sporothrix schenkii B62482, pIC50 (Sporothrix schenkii): <4.19 | Inf. E: Aspergillus fumigatus B42928, pIC50 (Aspergillus fumigatus): <4.19 | Inf. D: Candida parapsilosis B66126, pIC50 (Candida parapsilosis): <4.19 | Inf. F: Cryptococcus neoformans B66663, pIC50 (Cryptococcus neoformans): 4.34

FC(F)(F)c1cc(C2=NCc3ccc(Cl)cc3-n3cccc32)ccn1 [Compound 98]
Inf. B: Microsporum canis B68128, pIC50 (Microsporum canis): <4.19 | Inf. G: Trichophyton mentagrophytes B70554, pIC50 [1]: 4.48 | Inf. C: Trichophyton rubrum B68183, pIC50 (Trichophyton rubrum): 4.47 | Inf. A: Sporothrix schenkii B62482, pIC50 (Sporothrix schenkii): 4.49 | Inf. E: Aspergillus fumigatus B42928, pIC50 (Aspergillus fumigatus): 4.49 | Inf. D: Candida parapsilosis B66126, pIC50 (Candida parapsilosis): 5.06 | Inf. F: Cryptococcus neoformans B66663, pIC50 (Cryptococcus neoformans): 5.03

Cl.FC(F)(F)c1ccc(C2NCc3c(Cl)cc(Cl)cc3-n3cccc32)cn1 (racemic) [Compound 19]
Inf. B: Microsporum canis B68128, pIC50 (Microsporum canis): 4.95 | Inf. G: Trichophyton mentagrophytes B70554, pIC50 [1]: 4.57 | Inf. C: Trichophyton rubrum B68183, pIC50 (Trichophyton rubrum): 5.65 | Inf. A: Sporothrix schenkii B62482, pIC50 (Sporothrix schenkii): <4.19 | Inf. E: Aspergillus fumigatus B42928, pIC50 (Aspergillus fumigatus): <4.19 | Inf. D: Candida parapsilosis B66126, pIC50 (Candida parapsilosis): <4.19 | Inf. F: Cryptococcus neoformans B66663, pIC50 (Cryptococcus neoformans): 5.02

Fc1cccc2cc(C3=NCc4c(Cl)cc(Cl)cc4-n4cccc43)sc12 [Compound 171]
Inf. B: Microsporum canis B68128, pIC50 (Microsporum canis): <4.19 | Inf. G: Trichophyton mentagrophytes B70554, pIC50 [1]: <4.19 | Inf. C: Trichophyton rubrum B68183, pIC50 (Trichophyton rubrum): 5.73 | Inf. A: Sporothrix schenkii B62482, pIC50 (Sporothrix schenkii): <4.19 | Inf. E: Aspergillus fumigatus B42928, pIC50 (Aspergillus fumigatus): <4.19 | Inf. D: Candida parapsilosis B66126, pIC50 (Candida parapsilosis): <4.19 | Inf. F: Cryptococcus neoformans B66663, pIC50 (Cryptococcus neoformans): 6.50

Cl.Clc1cc2oc(C3NCc4c(Cl)cccc4-n4cccc43)cc2cn1 (racemic) [Compound 51]
Inf. B: Microsporum canis B68128, pIC50 (Microsporum canis): 5.40 | Inf. G: Trichophyton mentagrophytes B70554, pIC50 [1]: 4.94 | Inf. C: Trichophyton rubrum B68183, pIC50 (Trichophyton rubrum): 5.63 | Inf. A: Sporothrix schenkii B62482, pIC50 (Sporothrix schenkii): <4.19 | Inf. E: Aspergillus fumigatus B42928, pIC50 (Aspergillus fumigatus): <4.19 | Inf. D: Candida parapsilosis B66126, pIC50 (Candida parapsilosis): <4.19 | Inf. F: Cryptococcus neoformans B66663, pIC50 (Cryptococcus neoformans): 4.45

Cc1nc2ccc(C3NCc4c(Cl)cccc4-n4cccc43)cc2o1.Cl (racemic) [Compound 50]
Inf. B: Microsporum canis B68128, pIC50 (Microsporum canis): 4.56 | Inf. G: Trichophyton mentagrophytes B70554, pIC50 [1]: <4.19 | Inf. C: Trichophyton rubrum B68183, pIC50 (Trichophyton rubrum): 4.49 | Inf. A: Sporothrix schenkii B62482, pIC50 (Sporothrix schenkii): <4.19 | Inf. E: Aspergillus fumigatus B42928, pIC50 (Aspergillus fumigatus): <4.19 | Inf. D: Candida parapsilosis B66126, pIC50 (Candida parapsilosis): <4.19 | Inf. F: Cryptococcus neoformans B66663, pIC50 (Cryptococcus neoformans): <4.19

Clc1cccc2c1CN=C(c1ccc3snnc3c1)c1cccn1-2 [Compound 195]
Inf. B: Microsporum canis B68128, pIC50 (Microsporum canis): <4.19 | Inf. G: Trichophyton mentagrophytes B70554, pIC50 [1]: <4.19 | Inf. C: Trichophyton rubrum B68183, pIC50 (Trichophyton rubrum): 6.34 | Inf. A: Sporothrix schenkii B62482, pIC50 (Sporothrix schenkii): <4.19 | Inf. E: Aspergillus fumigatus B42928, pIC50 (Aspergillus fumigatus): <4.19 | Inf. D: Candida parapsilosis B66126, pIC50 (Candida parapsilosis): <4.19 | Inf. F: Cryptococcus neoformans B66663, pIC50 (Cryptococcus neoformans): <4.19

Cc1cccc2c1CNC(c1ccc(C(F)(F)F)nc1)c1cccn1-2.Cl (racemic) [Compound 18]
Inf. B: Microsporum canis B68128, pIC50 (Microsporum canis): 5.05 | Inf. G: Trichophyton mentagrophytes B70554, pIC50 [1]: 4.62 | Inf. C: Trichophyton rubrum B68183, pIC50 (Trichophyton rubrum): 5.52 | Inf. A: Sporothrix schenkii B62482, pIC50 (Sporothrix schenkii): <4.19 | Inf. E: Aspergillus fumigatus B42928, pIC50 (Aspergillus fumigatus): <4.19 | Inf. D: Candida parapsilosis B66126, pIC50 (Candida parapsilosis): <4.19 | Inf. F: Cryptococcus neoformans B66663, pIC50 (Cryptococcus neoformans): <4.19
